From BigSolDB 2.1

In the case of `Cn1cc([N+](=O)[O-])cn1`, the solubility (mole fraction) (in 1,2-dichlorobenzene, 283.15 K) is reported as 0.000121, the solubility (mole fraction) (in 1,2-dichlorobenzene, 288.15 K) is reported as 0.000147 and the solubility (mole fraction) (in 1,2-dichlorobenzene, 293.15 K) is reported as 0.000179. For the same compound, the solubility (mole fraction) (in 1,2-dichlorobenzene, 298.15 K) was 0.000215, the solubility (mole fraction) (in 1,2-dichlorobenzene, 303.15 K) was 0.000266 and the solubility (mole fraction) (in 1,2-dichlorobenzene, 308.15 K) was 0.000331. It also gave a solubility (mole fraction) (in 1,2-dichlorobenzene, 313.15 K) of 0.000402, a solubility (mole fraction) (in 1,2-dichlorobenzene, 318.15 K) of 0.000492 and a solubility (mole fraction) (in 1,2-dichlorobenzene, 323.15 K) of 0.000607. It also gave a solubility (mole fraction) (in 2-butanone, 283.15 K) of 0.0093, a solubility (mole fraction) (in 2-butanone, 288.15 K) of 0.0098 and a solubility (mole fraction) (in 2-butanone, 293.15 K) of 0.0112. It also gave a solubility (mole fraction) (in 2-butanone, 298.15 K) of 0.0139, a solubility (mole fraction) (in 2-butanone, 303.15 K) of 0.0162 and a solubility (mole fraction) (in 2-butanone, 308.15 K) of 0.0177. For the same compound, the solubility (mole fraction) (in 2-butanone, 313.15 K) was 0.021, the solubility (mole fraction) (in 2-butanone, 318.15 K) was 0.0242 and the solubility (mole fraction) (in 2-butanone, 323.15 K) was 0.0285. It also gave a solubility (mole fraction) (in 2-pentanol, 283.15 K) of 0.000501, a solubility (mole fraction) (in 2-pentanol, 288.15 K) of 0.000685 and a solubility (mole fraction) (in 2-pentanol, 293.15 K) of 0.000871. It also gave a solubility (mole fraction) (in 2-pentanol, 298.15 K) of 0.0011, a solubility (mole fraction) (in 2-pentanol, 303.15 K) of 0.00142 and a solubility (mole fraction) (in 2-pentanol, 308.15 K) of 0.00175. It also gave a solubility (mole fraction) (in 2-pentanol, 313.15 K) of 0.00221, a solubility (mole fraction) (in 2-pentanol, 318.15 K) of 0.00278 and a solubility (mole fraction) (in 2-pentanol, 323.15 K) of 0.00348. It also gave a solubility (mole fraction) (in acetic acid, 283.15 K) of 0.000218, a solubility (mole fraction) (in acetic acid, 288.15 K) of 0.000296 and a solubility (mole fraction) (in acetic acid, 293.15 K) of 0.00039. For the same compound, the solubility (mole fraction) (in acetic acid, 298.15 K) was 0.000508, the solubility (mole fraction) (in acetic acid, 303.15 K) was 0.000633 and the solubility (mole fraction) (in acetic acid, 308.15 K) was 0.000776. For the same compound, the solubility (mole fraction) (in acetic acid, 313.15 K) was 0.000925, the solubility (mole fraction) (in acetic acid, 318.15 K) was 0.00108 and the solubility (mole fraction) (in acetic acid, 323.15 K) was 0.0012. The solubility (mole fraction) (in acetone, 283.15 K) was 0.0192, the solubility (mole fraction) (in acetone, 288.15 K) was 0.0239 and the solubility (mole fraction) (in acetone, 293.15 K) was 0.0299. It also gave a solubility (mole fraction) (in acetone, 298.15 K) of 0.0379, a solubility (mole fraction) (in acetone, 303.15 K) of 0.0485 and a solubility (mole fraction) (in acetone, 308.15 K) of 0.0626. It also gave a solubility (mole fraction) (in acetone, 313.15 K) of 0.0814, a solubility (mole fraction) (in acetone, 318.15 K) of 0.107 and a solubility (mole fraction) (in acetone, 323.15 K) of 0.141. The solubility (mole fraction) (in acetonitrile, 283.15 K) was 0.00299, the solubility (mole fraction) (in acetonitrile, 288.15 K) was 0.00334 and the solubility (mole fraction) (in acetonitrile, 293.15 K) was 0.00423. It also gave a solubility (mole fraction) (in acetonitrile, 298.15 K) of 0.00507, a solubility (mole fraction) (in acetonitrile, 303.15 K) of 0.006 and a solubility (mole fraction) (in acetonitrile, 308.15 K) of 0.00673. The solubility (mole fraction) (in acetonitrile, 313.15 K) was 0.00756, the solubility (mole fraction) (in acetonitrile, 318.15 K) was 0.00937 and the solubility (mole fraction) (in acetonitrile, 323.15 K) was 0.0117. The solubility (mole fraction) (in ethanol, 283.15 K) was 0.00483, the solubility (mole fraction) (in ethanol, 288.15 K) was 0.00511 and the solubility (mole fraction) (in ethanol, 293.15 K) was 0.00546. It also gave a solubility (mole fraction) (in ethanol, 298.15 K) of 0.00581, a solubility (mole fraction) (in ethanol, 303.15 K) of 0.00633 and a solubility (mole fraction) (in ethanol, 308.15 K) of 0.00694. It also gave a solubility (mole fraction) (in ethanol, 313.15 K) of 0.00736, a solubility (mole fraction) (in ethanol, 318.15 K) of 0.00785 and a solubility (mole fraction) (in ethanol, 323.15 K) of 0.00823. For the same compound, the solubility (mole fraction) (in ethyl acetate, 283.15 K) was 0.0126, the solubility (mole fraction) (in ethyl acetate, 288.15 K) was 0.0143 and the solubility (mole fraction) (in ethyl acetate, 293.15 K) was 0.0162. It also gave a solubility (mole fraction) (in ethyl acetate, 298.15 K) of 0.0183, a solubility (mole fraction) (in ethyl acetate, 303.15 K) of 0.0208 and a solubility (mole fraction) (in ethyl acetate, 308.15 K) of 0.0235. It also gave a solubility (mole fraction) (in ethyl acetate, 313.15 K) of 0.0265, a solubility (mole fraction) (in ethyl acetate, 318.15 K) of 0.0299 and a solubility (mole fraction) (in ethyl acetate, 323.15 K) of 0.0337. It also gave a solubility (mole fraction) (in isopropanol, 283.15 K) of 0.00185, a solubility (mole fraction) (in isopropanol, 288.15 K) of 0.00235 and a solubility (mole fraction) (in isopropanol, 293.15 K) of 0.00292. It also gave a solubility (mole fraction) (in isopropanol, 298.15 K) of 0.00363, a solubility (mole fraction) (in isopropanol, 303.15 K) of 0.00455 and a solubility (mole fraction) (in isopropanol, 308.15 K) of 0.00566. For the same compound, the solubility (mole fraction) (in isopropanol, 313.15 K) was 0.00697, the solubility (mole fraction) (in isopropanol, 318.15 K) was 0.0085 and the solubility (mole fraction) (in isopropanol, 323.15 K) was 0.0102. The solubility (mole fraction) (in methanol, 283.15 K) was 0.00628, the solubility (mole fraction) (in methanol, 288.15 K) was 0.00699 and the solubility (mole fraction) (in methanol, 293.15 K) was 0.00754. The solubility (mole fraction) (in methanol, 298.15 K) was 0.00835, the solubility (mole fraction) (in methanol, 303.15 K) was 0.00923 and the solubility (mole fraction) (in methanol, 308.15 K) was 0.0103. For the same compound, the solubility (mole fraction) (in methanol, 313.15 K) was 0.0113, the solubility (mole fraction) (in methanol, 318.15 K) was 0.0126 and the solubility (mole fraction) (in methanol, 323.15 K) was 0.014. The solubility (mole fraction) (in methyl acetate, 283.15 K) was 0.0161, the solubility (mole fraction) (in methyl acetate, 288.15 K) was 0.0185 and the solubility (mole fraction) (in methyl acetate, 293.15 K) was 0.022. The solubility (mole fraction) (in methyl acetate, 298.15 K) was 0.0255, the solubility (mole fraction) (in methyl acetate, 303.15 K) was 0.0293 and the solubility (mole fraction) (in methyl acetate, 308.15 K) was 0.0351. For the same compound, the solubility (mole fraction) (in methyl acetate, 313.15 K) was 0.0401, the solubility (mole fraction) (in methyl acetate, 318.15 K) was 0.0461 and the solubility (mole fraction) (in methyl acetate, 323.15 K) was 0.0519. It also gave a solubility (mole fraction) (in n-butanol, 283.15 K) of 0.00205, a solubility (mole fraction) (in n-butanol, 288.15 K) of 0.00266 and a solubility (mole fraction) (in n-butanol, 293.15 K) of 0.00323. The solubility (mole fraction) (in n-butanol, 298.15 K) was 0.00438, the solubility (mole fraction) (in n-butanol, 303.15 K) was 0.00559 and the solubility (mole fraction) (in n-butanol, 308.15 K) was 0.00709. For the same compound, the solubility (mole fraction) (in n-butanol, 313.15 K) was 0.0091, the solubility (mole fraction) (in n-butanol, 318.15 K) was 0.0123 and the solubility (mole fraction) (in n-butanol, 323.15 K) was 0.0154. It also gave a solubility (mole fraction) (in n-pentanol, 283.15 K) of 0.0016, a solubility (mole fraction) (in n-pentanol, 288.15 K) of 0.00182 and a solubility (mole fraction) (in n-pentanol, 293.15 K) of 0.0021. For the same compound, the solubility (mole fraction) (in n-pentanol, 298.15 K) was 0.0024, the solubility (mole fraction) (in n-pentanol, 303.15 K) was 0.00278 and the solubility (mole fraction) (in n-pentanol, 308.15 K) was 0.00325. The solubility (mole fraction) (in n-pentanol, 313.15 K) was 0.0038, the solubility (mole fraction) (in n-pentanol, 318.15 K) was 0.00469 and the solubility (mole fraction) (in n-pentanol, 323.15 K) was 0.0054. The solubility (mole fraction) (in n-propanol, 283.15 K) was 0.00209, the solubility (mole fraction) (in n-propanol, 288.15 K) was 0.00229 and the solubility (mole fraction) (in n-propanol, 293.15 K) was 0.00259. The solubility (mole fraction) (in n-propanol, 298.15 K) was 0.00296, the solubility (mole fraction) (in n-propanol, 303.15 K) was 0.00331 and the solubility (mole fraction) (in n-propanol, 308.15 K) was 0.00382. For the same compound, the solubility (mole fraction) (in n-propanol, 313.15 K) was 0.00425, the solubility (mole fraction) (in n-propanol, 318.15 K) was 0.00487 and the solubility (mole fraction) (in n-propanol, 323.15 K) was 0.00553. The solubility (mole fraction) (in sec-butanol, 283.15 K) was 0.000727, the solubility (mole fraction) (in sec-butanol, 288.15 K) was 0.000891 and the solubility (mole fraction) (in sec-butanol, 293.15 K) was 0.00112. The solubility (mole fraction) (in sec-butanol, 298.15 K) was 0.00151, the solubility (mole fraction) (in sec-butanol, 303.15 K) was 0.00213 and the solubility (mole fraction) (in sec-butanol, 308.15 K) was 0.00287. For the same compound, the solubility (mole fraction) (in sec-butanol, 313.15 K) was 0.00382, the solubility (mole fraction) (in sec-butanol, 318.15 K) was 0.00501 and the solubility (mole fraction) (in sec-butanol, 323.15 K) was 0.00632. The solubility (mole fraction) (in toluene, 283.15 K) was 0.00714, the solubility (mole fraction) (in toluene, 288.15 K) was 0.00823 and the solubility (mole fraction) (in toluene, 293.15 K) was 0.0095. The solubility (mole fraction) (in toluene, 298.15 K) was 0.0112, the solubility (mole fraction) (in toluene, 303.15 K) was 0.0132 and the solubility (mole fraction) (in toluene, 308.15 K) was 0.0156. It also gave a solubility (mole fraction) (in toluene, 313.15 K) of 0.0189, a solubility (mole fraction) (in toluene, 318.15 K) of 0.0232 and a solubility (mole fraction) (in toluene, 323.15 K) of 0.0276. For the same compound, the solubility (mole fraction) (in water, 283.15 K) was 7.5e-05, the solubility (mole fraction) (in water, 288.15 K) was 9.4e-05 and the solubility (mole fraction) (in water, 293.15 K) was 0.000113. It also gave a solubility (mole fraction) (in water, 298.15 K) of 0.000127, a solubility (mole fraction) (in water, 303.15 K) of 0.000154 and a solubility (mole fraction) (in water, 308.15 K) of 0.000181. The solubility (mole fraction) (in water, 313.15 K) was 0.000222, the solubility (mole fraction) (in water, 318.15 K) was 0.000273 and the solubility (mole fraction) (in water, 323.15 K) was 0.000331.
